In EP1247803A2, “Indolinone compounds suitable for modulation of protein kinases” (Sugen, Inc., priority 1996, dated 1998):

Experiments:
EGFR = target: T1, EGFR (Homo sapiens, UniProt P00533); assay: EGFR ELISA assay (in vitro kinase activity, EGFR captured from A431 cell lysate); type: biochemical; set-up: concentration or dose not given beside the values
T1 construct: Add 7 ug A431 cell lysate per well (EGFR source); endogenous in cells; host or cells: A431
Procedure, shortened: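 EGFR from A431 lysate was captured on plates coated with anti-EGFR antibody. Compounds were added 30 min before a 5 min phosphorylation with 3 µM ATP/5 mM MnCl2, which was stopped with 20 mM EDTA. Phosphotyrosine was detected with rabbit anti-phosphotyrosine, then a peroxidase-conjugated secondary and ABTS/H2O2, read at 410 nm.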

MET = MET biochemical kinase assay; set-up: species or system human; concentration or dose not given beside the values
Procedure, shortened: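 In this format, tyrosine phosphorylation of plate-captured human MET is followed in vitro after compound addition in ATP/divalent-cation buffer, detected by anti-phosphotyrosine-HRP with TMB substrate.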

T1 sequence (P00533 25-1210): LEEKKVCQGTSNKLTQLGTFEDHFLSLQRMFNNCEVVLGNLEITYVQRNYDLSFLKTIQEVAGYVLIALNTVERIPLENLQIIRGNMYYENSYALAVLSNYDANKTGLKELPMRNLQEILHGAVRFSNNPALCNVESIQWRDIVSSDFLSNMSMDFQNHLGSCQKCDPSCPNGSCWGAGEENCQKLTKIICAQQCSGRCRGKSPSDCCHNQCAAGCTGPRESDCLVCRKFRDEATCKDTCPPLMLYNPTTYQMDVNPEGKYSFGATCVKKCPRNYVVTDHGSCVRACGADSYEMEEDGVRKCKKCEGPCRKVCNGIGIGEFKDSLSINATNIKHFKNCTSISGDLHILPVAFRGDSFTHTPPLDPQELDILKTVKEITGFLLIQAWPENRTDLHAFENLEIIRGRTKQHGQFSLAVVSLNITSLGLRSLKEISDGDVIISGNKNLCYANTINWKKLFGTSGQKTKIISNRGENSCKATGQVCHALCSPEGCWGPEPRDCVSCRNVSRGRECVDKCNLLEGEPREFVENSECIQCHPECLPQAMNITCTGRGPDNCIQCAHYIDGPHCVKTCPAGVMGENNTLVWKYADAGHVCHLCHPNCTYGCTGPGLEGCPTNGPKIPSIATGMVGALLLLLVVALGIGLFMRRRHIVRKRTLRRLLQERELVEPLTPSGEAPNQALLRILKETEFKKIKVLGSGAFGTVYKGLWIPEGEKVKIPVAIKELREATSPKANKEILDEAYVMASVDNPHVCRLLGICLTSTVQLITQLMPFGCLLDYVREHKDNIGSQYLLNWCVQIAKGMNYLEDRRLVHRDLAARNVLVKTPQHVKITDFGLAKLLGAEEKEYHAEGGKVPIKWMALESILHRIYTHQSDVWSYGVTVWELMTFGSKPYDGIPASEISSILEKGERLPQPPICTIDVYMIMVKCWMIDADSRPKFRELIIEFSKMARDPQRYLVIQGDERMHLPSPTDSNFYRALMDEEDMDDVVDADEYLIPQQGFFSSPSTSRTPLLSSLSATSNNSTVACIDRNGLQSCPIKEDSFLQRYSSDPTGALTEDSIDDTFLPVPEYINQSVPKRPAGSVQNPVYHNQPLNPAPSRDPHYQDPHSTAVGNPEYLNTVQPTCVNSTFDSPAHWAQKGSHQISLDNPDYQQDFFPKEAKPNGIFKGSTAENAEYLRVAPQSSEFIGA

| SMILES | Biochem EGFR %Inhibition (EGFR) | Met Kinase % Inhibition (MET) |
| --- | --- | --- |
| O=C1Nc2ccc(I)cc2C1=Cc1ncc[nH]1 [10720/B11] | 22.4% | 42.1% |
| Cc1[nH]c(C=C2C(=O)Nc3ccc(I)cc32)c(Br)c1Br [10717/B11] | 82.7% | 91.0% |
| CCOc1cc(C=C2C(=O)Nc3c(Br)cc(Br)cc32)ccc1O [10720/A09] | 8.6% | 75.4% |
| O=C1Nc2ccc(I)cc2C1=Cc1ccc(Br)cc1 [10717/B08] | 60.5% | 88.8% |
| COc1ccc(C=C2C(=O)Nc3ccc(S(=O)(=O)Nc4ccc(C(F)(F)F)cc4)cc32)c(OC)c1 [10719/E04] | -7.4% | 3.1% |
| Cc1c(Br)ccc2c1C(=Cc1ccccc1O)C(=O)N2 [10720/C05] | -15.3% | 72.5% |
| COc1cc(OC)c(C=C2C(=O)Nc3ccc(S(=O)(=O)Nc4ccc(C(F)(F)F)cc4)cc32)c(OC)c1 [10719/E06] | -42.0% | -4.5% |
| CN(C)c1ccc(C=C2C(=O)Nc3ccc(CCCl)cc32)cc1 [10719/G08] | 65.4% | 39.4% |
| COc1cc(OC)c(C=C2C(=O)Nc3ccc(S(=O)(=O)N4CCOCC4)cc32)c(OC)c1 [10719/F06] | -26.0% | -22.0% |
| CNS(=O)(=O)c1ccc2c(c1)C(=Cc1ccc(O)c(O)c1)C(=O)N2 [10719/D03] | 95.7% | 93.2% |
| COc1cc(OC)c(C=C2C(=O)Nc3ccc(CCCl)cc32)c(OC)c1 [10719/G06] | -45.7% | -18.1% |
| CNS(=O)(=O)c1ccc2c(c1)C(=Cc1c(OC)cc(OC)cc1OC)C(=O)N2 [10719/D06] | -12.2% | 11.2% |
| Cc1c(Br)ccc2c1C(=Cc1ncc[nH]1)C(=O)N2 [10720/C11] | -21.9% | 30.0% |
| O=C1Nc2c(Br)cc(Br)cc2C1=Cc1c(F)cc(F)cc1F [10720/A02] | 11.3% | 45.2% |
| Cc1c(Br)ccc2c1C(=Cc1cccs1)C(=O)N2 [10717/C03] | 18.0% | 25.3% |
| Cc1c(Br)ccc2c1C(=Cc1c(F)cc(F)cc1F)C(=O)N2 [10720/C02] | 23.5% | 63.6% |
| COc1cc(O)ccc1C=C1C(=O)Nc2c(Br)cc(Br)cc21 [10720/A03] | -5.3% | 58.2% |
| COc1ccc(C=C2C(=O)Nc3ccc(I)cc32)cc1OC [10720/B04] | 50.5% | 61.8% |
| COc1cc(O)ccc1C=C1C(=O)Nc2ccc(Br)c(C)c21 [10720/C03] | 0.9% | 50.3% |
| CCOc1ccc(C=C2C(=O)Nc3ccc(S(=O)(=O)Nc4ccc(C(F)(F)F)cc4)cc32)cc1OC [10719/E02] | 40.0% | 35.7% |

| SMILES | Biochem EGFR %Inhibition (EGFR) | Met Kinase % Inhibition (MET) |
| --- | --- | --- |
| CNS(=O)(=O)c1ccc2c(c1)C(=Cc1c(F)cc(F)cc1F)C(=O)N2 [10720/D02] | 11.1% | 17.8% |
| O=C1Nc2ccc(I)cc2C1=Cc1ccccc1 [10720/B06] | 21.2% | 55.1% |
| CSc1ccc(C=C2C(=O)Nc3c(Br)cc(Br)cc32)s1 [10720/A07] | 42.5% | 57.2% |
| CN(C)c1ccc(C=C2C(=O)Nc3ccc(S(=O)(=O)Nc4ccc(C(F)(F)F)cc4)cc32)cc1 [10719/E08] | 36.8% | 80.0% |
| Cc1c(Br)ccc2c1C(=Cc1ccccc1)C(=O)N2 [10720/C06] | -9.7% | 36.7% |
| COc1ccc(C=C2C(=O)Nc3c(Br)cc(Br)cc32)cc1OC [10720/A04] | -1.8% | 62.3% |
| O=C1Nc2ccc(S(=O)(=O)Nc3ccc(C(F)(F)F)cc3)cc2C1=Cc1ccc(O)cc1 [10719/E07] | -18.4% | 55.5% |
| CCc1c(C)[nH]c(C=C2C(=O)Nc3ccc(S(=O)(=O)NC)cc32)c1C [10719/D05] | 18.5% | 71.8% |
| O=C1Nc2ccc(I)cc2C1=Cc1ccc[nH]1 [10717/B09] | 78.3% | 88.8% |
| O=C1Nc2ccc(S(=O)(=O)N3CCOCC3)cc2C1=Cc1ccc(O)c(O)c1 [10719/F03] | -30.8% | 89.5% |
| CSc1ccc(C=C2C(=O)Nc3ccc(Br)c(C)c32)s1 [10720/C07] | -25.4% | 26.7% |
| O=C1Nc2c(Br)cc(Br)cc2C1=Cc1ncc[nH]1 [10720/A11] | -23.2% | 58.7% |
| CCOc1ccccc1C=C1C(=O)Nc2ccc(Br)c(C)c21 [10717/C02] | -0.4% | 29.7% |
| CNS(=O)(=O)c1ccc2c(c1)C(=Cc1ccc(O)cc1)C(=O)N2 [10719/D07] | 13.7% | 41.5% |
| Cc1c(Br)ccc2c1C(=Cc1cccc([N+](=O)[O-])c1)C(=O)N2 [10719/C10] | 10.7% | 7.9% |
| CCOc1ccc(C=C2C(=O)Nc3ccc(CCCl)cc32)cc1OC [10719/G02] | -12.2% | -2.4% |
| COc1ccc(O)c(C=C2C(=O)Nc3ccc(Br)c(C)c32)c1 [10720/C10] | 2.0% | 62.6% |
| CCc1c(C)[nH]c(C=C2C(=O)Nc3ccc(S(=O)(=O)Nc4ccc(C(F)(F)F)cc4)cc32)c1C [10719/E05] | 21.2% | 39.0% |
| O=C1Nc2ccc(CCCl)cc2C1=Cc1ccc(F)cc1Cl [10719/G09] | -32.8% | 1.3% |
| O=C1Nc2ccc(S(=O)(=O)N3CCOCC3)cc2C1=Cc1ccc(F)cc1C(F)(F)F [10719/F11] | -66.3% | 8.7% |
